What all share (experiment): Heart Infusion Agar Dilution Method (MIC)
What all share (assay type): cell-based
(Agar dilution tests growth on a series of plates holding different concentrations.)

The test system of assay [1] is Escherichia coli NIHJC-2. Conditions: NIHJC2, pH 7.2.
Assay [2] relates to Staphylococcus aureus 209-P. As to conditions: pH 7.2.
Assay [3] has as its system Escherichia coli Juhl. As to conditions: pH 7.2.
Assay [4] has as its system Staphylococcus epidermidis. As to conditions: pH 7.2.
Assay [5] has as its system Serratia marcescens T-55. As to conditions: T55, pH 7.2.
For assay [6], the system named is Proteus mirabilis 1287.
The test system of assay [7] is Klebsiella pneumoniae Y-60. Conditions: Y60, pH 7.2.
In assay [8] the test system is Serratia marcescens T-26. As to conditions: T26, pH 7.2.
Assay [9] has as its system Klebsiella pneumoniae 8045. As to conditions: pH 7.2.
The mark [10] stands for this setting: Staphylococcus aureus 209-P, Heart Infusion Agar Dilution Method, read-out: MIC.

In brackets after ≈: the same amount, converted by molar mass. Like-named read-outs stand apart in the source and are kept apart here.

On to `Cc1nnc(SCC2=C(C(=O)O)N3C(=O)[C@@H](NC(=O)Cn4cnnn4)[C@H]3SC2)s1` [Cefazolin], for which the MIC in assay [1] was 1.56 µg/mL (≈ 3.43 µM); in [2] (setting [10]), no more than 0.05 µg/mL; in [3], 1.56 µg/mL (≈ 3.43 µM).

Turning to `CC1=C(C(=O)O)N2C(=O)[C@@H](NC(=O)[C@H](N)c3ccccc3)[C@H]2SC1` [Cephalexin], the MIC in assay [1] is 12.5 µg/mL (≈ 36 µM); in [4], 3.12 µg/mL (≈ 8.98 µM); in assay [2] (Staphylococcus aureus, 209P), 0.2 µg/mL (≈ 0.576 µM); in [5], 50 µg/mL (≈ 144 µM); in assay [3], 12.5 µg/mL (≈ 36 µM); in assay [6] (Proteus mirabilis, 1287, pH 7.2) it was 25 µg/mL (≈ 72 µM). The MIC in [7] was determined as 50 µg/mL (≈ 144 µM).

With `N[C@@H](C(=O)N[C@@H]1C(=O)N2C(C(=O)O)=C(Cl)CC[C@H]12)c1ccccc1` [Reference Example 2, (6R, 7S) 7-(R)-2-phenylglycinamido3-chloro-1-azabicyclo[4,2,0]oct-2-en-8-on-2-carboxylic acid], the MIC in [2] (setting [10]) is 0.1 µg/mL (≈ 0.286 µM); in assay [8] it was greater than 100 µg/mL; in assay [6] (Proteus mirabilis 1287, Heart Infusion Agar Dilution Method, pH 7.2, read-out: MIC), 3.12 µg/mL (≈ 8.92 µM); in [9], 0.2 µg/mL (≈ 0.572 µM).

One may read the MIC as the least concentration at which growth counts as inhibited.
